Several values for one entry are separate records, joined by “and”; a condition that tells them apart may be missing. Equal entries are not always repeated.
Conditions: Liquid; for mass density: Vibrating tube method

CCCC[n+]1cccc(C)c1.O=S(=O)([N-]S(=O)(=O)C(F)(F)F)C(F)(F)F
Conditions	viscosity
278.15 K, 101.33 kPa, Concentric cylinders viscometry	201 mPa·s
283.15 K, 101.33 kPa, Concentric cylinders viscometry	146.3 mPa·s
288.13 K, 101.33 kPa, Vibrating wire viscometry	107.09 mPa·s
288.15 K, 101.33 kPa, Concentric cylinders viscometry	109.5 mPa·s
292.95 K, 101.33 kPa, Vibrating wire viscometry	83.24 mPa·s
293.15 K, 101.33 kPa, Concentric cylinders viscometry	84.1 mPa·s
296.3 K, 101.33 kPa, Vibrating wire viscometry	71.15 mPa·s
298.15 K, 101.33 kPa, Concentric cylinders viscometry	65.6 mPa·s
298.25 K, 101.33 kPa, Vibrating wire viscometry	65 mPa·s and 64.91 mPa·s
300.55 K, 101.33 kPa, Vibrating wire viscometry	58.21 mPa·s
302.98 K, 101.33 kPa, Vibrating wire viscometry	52.92 mPa·s
303.15 K, 101.33 kPa, Concentric cylinders viscometry	52.31 mPa·s
303.15 K, 10000 kPa, Falling or rolling sphere viscometry	58.6 mPa·s
303.15 K, 15000 kPa, Falling or rolling sphere viscometry	62.3 mPa·s
303.15 K, 25000 kPa, Falling or rolling sphere viscometry	70.4 mPa·s
303.15 K, 50000 kPa, Falling or rolling sphere viscometry	94.7 mPa·s
303.15 K, 75000 kPa, Falling or rolling sphere viscometry	126.3 mPa·s
307.84 K, 101.33 kPa, Vibrating wire viscometry	43.69 mPa·s
308.15 K, 101.33 kPa, Concentric cylinders viscometry	42.36 mPa·s
310.19 K, 101.33 kPa, Vibrating wire viscometry	40.27 mPa·s
313.15 K, 101.33 kPa, Concentric cylinders viscometry	35.01 mPa·s
313.15 K, 10000 kPa, Falling or rolling sphere viscometry	40.1 mPa·s
313.15 K, 15000 kPa, Falling or rolling sphere viscometry	42.3 mPa·s
313.15 K, 25000 kPa, Falling or rolling sphere viscometry	47.2 mPa·s
313.15 K, 50000 kPa, Falling or rolling sphere viscometry	61.7 mPa·s
313.15 K, 75000 kPa, Falling or rolling sphere viscometry	80.5 mPa·s
313.15 K, 100000 kPa, Falling or rolling sphere viscometry	104.9 mPa·s
318.15 K, 101.33 kPa, Concentric cylinders viscometry	29.01 mPa·s
323.15 K, 101.33 kPa, Concentric cylinders viscometry	24.47 mPa·s
323.15 K, 10000 kPa, Falling or rolling sphere viscometry	27.2 mPa·s
323.15 K, 15000 kPa, Falling or rolling sphere viscometry	28.7 mPa·s
323.15 K, 25000 kPa, Falling or rolling sphere viscometry	32 mPa·s
323.15 K, 50000 kPa, Falling or rolling sphere viscometry	41.6 mPa·s
323.15 K, 75000 kPa, Falling or rolling sphere viscometry	53.5 mPa·s
323.15 K, 100000 kPa, Falling or rolling sphere viscometry	68.5 mPa·s
328.15 K, 101.33 kPa, Concentric cylinders viscometry	20.87 mPa·s
333.15 K, 101.33 kPa, Concentric cylinders viscometry	17.97 mPa·s
333.15 K, 10000 kPa, Falling or rolling sphere viscometry	20 mPa·s
333.15 K, 15000 kPa, Falling or rolling sphere viscometry	20.8 mPa·s
333.15 K, 25000 kPa, Falling or rolling sphere viscometry	22.8 mPa·s
333.15 K, 50000 kPa, Falling or rolling sphere viscometry	29.2 mPa·s
333.15 K, 75000 kPa, Falling or rolling sphere viscometry	37.2 mPa·s
333.15 K, 100000 kPa, Falling or rolling sphere viscometry	46.3 mPa·s
338.15 K, 101.33 kPa, Concentric cylinders viscometry	15.61 mPa·s
343.15 K, 101.33 kPa, Concentric cylinders viscometry	13.68 mPa·s
343.15 K, 10000 kPa, Falling or rolling sphere viscometry	14.8 mPa·s
343.15 K, 15000 kPa, Falling or rolling sphere viscometry	15.7 mPa·s
343.15 K, 25000 kPa, Falling or rolling sphere viscometry	17.4 mPa·s
343.15 K, 50000 kPa, Falling or rolling sphere viscometry	21.7 mPa·s
343.15 K, 75000 kPa, Falling or rolling sphere viscometry	26.7 mPa·s
343.15 K, 100000 kPa, Falling or rolling sphere viscometry	33.2 mPa·s
348.15 K, 101.33 kPa, Concentric cylinders viscometry	12.07 mPa·s
353.15 K, 101.33 kPa, Concentric cylinders viscometry	10.78 mPa·s
353.15 K, 10000 kPa, Falling or rolling sphere viscometry	11.5 mPa·s
353.15 K, 15000 kPa, Falling or rolling sphere viscometry	12.1 mPa·s
353.15 K, 25000 kPa, Falling or rolling sphere viscometry	13.2 mPa·s
353.15 K, 50000 kPa, Falling or rolling sphere viscometry	16.4 mPa·s
353.15 K, 75000 kPa, Falling or rolling sphere viscometry	20.2 mPa·s
353.15 K, 100000 kPa, Falling or rolling sphere viscometry	24.8 mPa·s
358.15 K, 101.33 kPa, Concentric cylinders viscometry	9.59 mPa·s
363.15 K, 101.33 kPa, Concentric cylinders viscometry	8.63 mPa·s
368.15 K, 101.33 kPa, Concentric cylinders viscometry	7.8 mPa·s
373.15 K, 101.33 kPa, Concentric cylinders viscometry	7.09 mPa·s

101.33 kPa
Conditions	mass density [kg/m3]
278.15 K	1431.3
283.15 K	1426.4
288.15 K	1421.6
293.15 K	1416.9
298.15 K	1412.3
303.15 K	1407.8
308.15 K	1403.2
313.15 K	1398.7
318.15 K	1394.3
323.15 K	1389.8
328.15 K	1385.4
333.15 K	1380.9
338.15 K	1376.4
343.15 K	1372
348.15 K	1367.5
353.15 K	1362.9
358.15 K	1358.3
363.15 K	1353.9
368.15 K	1349.6
373.15 K	1345.4

— the NIST ThermoML archive (doi:10.1016/j.jct.2018.01.025)
